For orientation: IC50 means the concentration that gives 50% inhibition.

This note sets out measurements from patent publication US10894797B2, “Fused tricyclic ring derivatives as SRC homology-2 phosphatase inhibitors” (Nikang Therapuetics, Inc., priority 2018, dated 2021).

Chain of SHP2 (Q06124 whole entry, the tested form may be a part): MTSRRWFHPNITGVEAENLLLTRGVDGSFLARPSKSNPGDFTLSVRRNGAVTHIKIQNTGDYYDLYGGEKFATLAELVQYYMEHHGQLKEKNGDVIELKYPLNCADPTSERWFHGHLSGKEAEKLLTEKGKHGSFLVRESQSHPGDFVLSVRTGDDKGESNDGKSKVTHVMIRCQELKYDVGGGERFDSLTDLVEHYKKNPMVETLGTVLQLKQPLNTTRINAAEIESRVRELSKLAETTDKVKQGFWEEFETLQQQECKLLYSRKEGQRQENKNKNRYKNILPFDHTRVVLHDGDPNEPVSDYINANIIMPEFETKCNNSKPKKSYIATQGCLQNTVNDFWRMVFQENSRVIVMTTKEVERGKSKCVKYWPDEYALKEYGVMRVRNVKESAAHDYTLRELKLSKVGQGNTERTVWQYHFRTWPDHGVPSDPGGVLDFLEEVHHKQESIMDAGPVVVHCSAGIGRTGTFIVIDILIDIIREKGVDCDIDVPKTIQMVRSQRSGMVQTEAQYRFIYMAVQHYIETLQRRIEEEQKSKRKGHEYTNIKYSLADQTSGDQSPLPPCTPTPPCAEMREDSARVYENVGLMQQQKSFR

This test concerns the target SHP2 (Homo sapiens (Human), UniProt Q06124). Nature of the test: SHP2 allosteric inhibition assay (DiFMUP substrate, bisphos-IRS1 peptide activation). The conditions noted are these: 0.33 nM SHP2, 0.5 μM bisphos-IRS1 peptide, 100 uM DiFMUP, room temperature. In kind it is biochemical. Here is the method:
At the basal state, SHP2 is auto-inhibited and access of substrates to the catalytic site is blocked by the […] interactions between the SH2 domains and the PTP domain. When bis-tyrosyl-phosphorylated peptides bind to SH2 domain of SHP2, the PTP domain becomes available for substrate recognition and reaction catalysis and SHP2 is allosterically activated. SHP2 catalytic activity can be measured using a fluorogenic artificial substrate DiFMUP.
The phosphatase reactions were carried out at room temperature in 384-well black polystyrene plates (Greiner Bio-One, Cat #784076) using assay buffers containing 60 mM HEPES, pH 7.2, 75 mM NaCl, 75 mM KCl, 1 mM EDTA, 0.05% P-20, and 5 mM DTT.
0.33 nM of SHP2 was co-incubated with of 0.5 μM of bisphos-IRS 1 peptide (sequence: H2N-LN(pY)IDLDLV(dPEG8)LST(pY)ASINFQK-amide) and various concentrations of compounds for 30-60 min at room temperature. Then the reaction was initiated by addition of the surrogate substrate DiFMUP (Invitrogen, Cat #D6567, 100 uM final).
The real-time conversion of DiFMUP to DiFMU (6,8-difluoro-7-hydroxyl-4-methyl-coumarin) was measured every 5 min for 30 min using a microplate reader (CLARIOstar, BMG Labtech) with excitation and emission wavelengths of 340 nm and 450 nm, respectively. Initial reaction rates were determined by linear fitting of the data and the inhibitor dose response curves were analyzed using normalized IC50 regression curve fitting with control-based normalization.
With `C[C@@H]1OCC2(CCN(c3ncc(Sc4ccnc5c4OC[C@@H]4C[C@H](OCC6CC6)CN54)nc3CO)CC2)[C@@H]1N` [Compound 16, (3-((3S,4S)-4-amino-3-methyl-2-oxa-8-azaspiro[4.5]decan-8-yl)-6-(((6aS,8S)-8-(cyclopropylmethoxy)-6a,7,8,9-tetrahydro-6H-pyrido[3,2-b]pyrrolo[1,2-d][1,4]oxazin-4-yl)thio)pyrazin-2-yl)methanol], 3 nM corresponded to half-maximal inhibition (IC50).
`C[C@@H]1OCC2(CCN(c3ncc(Sc4cc(N)nc5c4OC[C@@H]4CCCN54)nc3CO)CC2)[C@@H]1N` [Compound 35, formic acid; (3-((3S,4S)-4-amino-3-methyl-2-oxa-8-azaspiro[4.5]decan-8-yl)-6-(((S)-2-amino-6a,7,8,9-tetrahydro-6H-pyrido[3,2-b]pyrrolo[1,2-d][1,4]oxazin-4-yl)thio)pyrazin-2-yl)methanol] returned an IC50 of 18 nM. Compared with the last compound, the IC50 is about 6-fold higher.
The compound `C[C@@H]1OCC2(CCN(c3ncc(Sc4ccnc5c4OC[C@@H]4CC6(CC6)CN54)nc3CO)CC2)[C@@H]1N` [Compound 17, (3-((3S,4S)-4-amino-3-methyl-2-oxa-8-azaspiro[4.5]decan-8-yl)-6-(((S)-6a′,7′-dihydro-6′H,9′H-spiro[cyclopropane-1,8′-pyrido[3,2-b]pyrrolo[1,2-d][1,4]oxazin]-4′-yl)thio)pyrazin-2-yl)methanol] returned an IC50 of 2 nM.
Same read-out and setting: with `C[C@@H]1OCC2(CCN(c3ncc(Sc4ccnc5c4OC[C@@H]4C[C@H](OC(N)=O)CN54)nc3CO)CC2)[C@@H]1N` [Compound 22, (6aS,8S)-4-((5-((3S,4S)-4-amino-3-methyl-2-oxa-8-azaspiro[4.5]decan-8-yl)-6-(hydroxymethyl)pyrazin-2-yl)thio)-6a,7,8,9-tetrahydro-6H-pyrido[3,2-b]pyrrolo[1,2-d]-[1,4]oxazin-8-yl carbamate] the figure was 6 nM.
On to `C[C@@H]1OCC2(CCN(c3ncc(Sc4ccnc5c4OC[C@@H]4C[C@](C)(O)CN54)nc3CO)CC2)[C@@H]1N` (single isomer, unassigned) [Compound 18], for which the “Shp2 IC50(nM)” value is “one of 21 and 22 is 13 and the other is 8”.
In turn, `COC[C@H]1C[C@H]2COc3c(Sc4ncc(N5CCC6(CC5)CO[C@@H](C)[C@H]6N)nc4N)ccnc3N2C1` [Compound 45, (3S,4S)-8-(6-amino-5-(((6aS,8S)-8-(methoxymethyl)-6a,7,8,9-tetrahydro-6H-pyrido[3,2-b]pyrrolo[1,2-d][1,4]oxazin-4-yl)thio)pyrazin-2-yl)-3-methyl-2-oxa-8-azaspiro[4.5]decan-4-amine] registered an IC50 of 9.4 nM.
Same read-out and setting: with `C[C@@H]1OCC2(CCN(c3ncc(Sc4ccnc5c4OC[C@@H]4C[C@H](C#N)CN54)nc3CO)CC2)[C@@H]1N` [Compound 20, (6aS,8S)-4-((5-((3S,4S)-4-amino-3-methyl-2-oxa-8-azaspiro[4.5]decan-8-yl)-6-(hydroxymethyl)pyrazin-2-yl)thio)-6a,7,8,9-tetrahydro-6H-pyrido[3,2-b]pyrrolo[1,2-d][1,4]oxazine-8-carbonitrile] the figure was 11 nM; with `COCO[C@H]1C[C@H]2COc3c(Sc4cnc(N5CCC6(CC5)CO[C@@H](C)[C@H]6N)c(CO)n4)ccnc3N2C1` [Compound 14, (3-((3S,4S)-4-amino-3-methyl-2-oxa-8-azaspiro[4.5]decan-8-yl)-6-(((6aS,8S)-8-(methoxymethoxy)-6a,7,8,9-tetrahydro-6H-pyrido[3,2-b]pyrrolo[1,2-d][1,4]oxazin-4-yl)thio)pyrazin-2-yl)methanol], 5 nM; with `COCCOC[C@H]1C[C@H]2COc3c(Sc4cnc(N5CCC6(CC5)CO[C@@H](C)[C@H]6N)c(CO)n4)ccnc3N2C1` [Compound 32, (3-((3S,4S)-4-amino-3-methyl-2-oxa-8-azaspiro[4.5]decan-8-yl)-6-(((6aS,8S)-8-((2-methoxyethoxy)methyl)-6a,7,8,9-tetrahydro-6H-pyrido[3,2-b]pyrrolo[1,2-d][1,4]oxazin-4-yl)thio)pyrazin-2-yl)methanol], 4 nM.
On to `C[C@@H]1OCC2(CCN(c3ncc(Sc4ccnc5c4OC[C@H]4CCCN54)nc3CO)CC2)[C@@H]1N` [Compound 2, (3-((3S,4S)-4-amino-3-methyl-2-oxa-8-azaspiro[4.5]decan-8-yl)-6-(((R)-6a,7,8,9-tetrahydro-6H-pyrido[3,2-b]pyrrolo[1,2-d][1,4]oxazin-4-yl)thio)pyrazin-2-yl)methanol], for which half-maximal inhibition (IC50) required 4 nM.
With `COCOC[C@H]1C[C@H]2COc3c(Sc4cnc(N5CCC6(CC5)CO[C@@H](C)[C@H]6N)cn4)ccnc3N2C1` [Compound 42, (3S,4S)-8-(5-(((6aS,8S)-8-((methoxymethoxy)methyl)-6a,7,8,9-tetrahydro-6H-pyrido[3,2-b]pyrrolo[1,2-d][1,4]oxazin-4-yl)thio)pyrazin-2-yl)-3-methyl-2-oxa-8-azaspiro[4.5]decan-4-amine], half-maximal inhibition (IC50) was put at 5.9 nM.
With `CO[C@@H]1C[C@@H]2COc3c(Sc4cnc(N5CCC6(CC5)CO[C@@H](C)[C@H]6N)c(CO)n4)ccnc3N2C1` [Compound 9, (3-((3S,4S)-4-amino-3-methyl-2-oxa-8-azaspiro[4.5]decan-8-yl)-6-(((6aR,8R)-8-methoxy-6a,7,8,9-tetrahydro-6H-pyrido[3,2-b]pyrrolo[1,2-d][1,4]oxazin-4-yl)thio)pyrazin-2-yl)methanol], the IC50 was 8 nM.
In the case of `C[C@@H]1OCC2(CCN(c3ncc(Sc4ccnc5c4OC[C@@H]4C[C@@H](O)CN54)nc3CO)CC2)[C@@H]1N` [Compound 8, (6aS,8R)-4-((5-((3 S,4S)-4-amino-3-methyl-2-oxa-8-azaspiro[4.5]decan-8-yl)-6-(hydroxymethyl)pyrazin-2-yl)thio)-6a,7,8,9-tetrahydro-6H-pyrido[3,2-b]pyrrolo[1,2-d][1,4]oxazin-8-ol], the IC50 is 8 nM.
